PMC11956013, “Structure–Activity Relationships and Evaluation of 2-(Heteroaryl-cycloalkyl)-1H-indoles as Tauopathy Positron Emission Tomography Radiotracers” (Journal of Medicinal Chemistry, 2025)

What was measured:
[1] = target: norepinephrine transporter (h) (Homo sapiens, UniProt P23975); settings: reference compound
dopamine transporter (h) = dopamine transporter (h) (Homo sapiens, UniProt Q01959); assay: dopamine transporter (h) (antagonist radioligand), Eurofins assay 52; settings: Specific binding; reference compound
dopamine transporter (h), sequence (Q01959 whole entry): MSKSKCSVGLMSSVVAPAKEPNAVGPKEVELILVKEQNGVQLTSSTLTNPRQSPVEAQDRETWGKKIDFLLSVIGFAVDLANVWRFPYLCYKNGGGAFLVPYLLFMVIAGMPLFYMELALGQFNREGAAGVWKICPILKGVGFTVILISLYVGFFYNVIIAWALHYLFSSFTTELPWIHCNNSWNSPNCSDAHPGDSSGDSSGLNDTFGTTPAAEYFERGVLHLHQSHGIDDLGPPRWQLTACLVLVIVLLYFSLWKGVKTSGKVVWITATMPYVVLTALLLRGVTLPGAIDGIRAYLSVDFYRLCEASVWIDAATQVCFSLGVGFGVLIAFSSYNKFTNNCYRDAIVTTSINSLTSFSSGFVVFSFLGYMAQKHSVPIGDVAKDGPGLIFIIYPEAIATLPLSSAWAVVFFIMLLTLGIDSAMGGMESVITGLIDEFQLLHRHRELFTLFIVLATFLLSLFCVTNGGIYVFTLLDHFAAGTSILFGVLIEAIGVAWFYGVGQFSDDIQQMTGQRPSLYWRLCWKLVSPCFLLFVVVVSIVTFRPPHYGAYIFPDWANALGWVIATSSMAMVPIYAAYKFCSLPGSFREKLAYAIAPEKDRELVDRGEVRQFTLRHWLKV

5-HT1A (h) = 5-HT1A (h) (Homo sapiens, UniProt P08908); settings: reference compound; 5-HT1A (h)
5-HT4e (h) = 5-HT4e (h) (Homo sapiens, UniProt Q13639); assay: Eurofins panel: 5-HT4e (h) (antagonist radioligand); settings: reference compound; 5-HT4e (h)
5-HT4e (h), sequence (Q13639 1-378 isoform Q13639-5): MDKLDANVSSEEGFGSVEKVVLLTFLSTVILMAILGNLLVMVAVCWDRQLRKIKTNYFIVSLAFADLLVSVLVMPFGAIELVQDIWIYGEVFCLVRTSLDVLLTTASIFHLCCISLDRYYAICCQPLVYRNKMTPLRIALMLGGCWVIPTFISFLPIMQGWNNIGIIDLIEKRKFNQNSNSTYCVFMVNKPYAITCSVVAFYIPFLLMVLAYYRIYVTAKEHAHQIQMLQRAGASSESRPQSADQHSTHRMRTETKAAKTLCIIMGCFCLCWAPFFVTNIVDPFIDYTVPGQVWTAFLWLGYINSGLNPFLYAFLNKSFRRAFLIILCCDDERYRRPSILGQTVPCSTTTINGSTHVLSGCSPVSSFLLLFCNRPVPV

5-HT7 (h) = 5-HT7 (h) (Homo sapiens, UniProt P34969); settings: reference compound; 5-HT7 (h)
5-HT7 (h), sequence (P34969 whole entry): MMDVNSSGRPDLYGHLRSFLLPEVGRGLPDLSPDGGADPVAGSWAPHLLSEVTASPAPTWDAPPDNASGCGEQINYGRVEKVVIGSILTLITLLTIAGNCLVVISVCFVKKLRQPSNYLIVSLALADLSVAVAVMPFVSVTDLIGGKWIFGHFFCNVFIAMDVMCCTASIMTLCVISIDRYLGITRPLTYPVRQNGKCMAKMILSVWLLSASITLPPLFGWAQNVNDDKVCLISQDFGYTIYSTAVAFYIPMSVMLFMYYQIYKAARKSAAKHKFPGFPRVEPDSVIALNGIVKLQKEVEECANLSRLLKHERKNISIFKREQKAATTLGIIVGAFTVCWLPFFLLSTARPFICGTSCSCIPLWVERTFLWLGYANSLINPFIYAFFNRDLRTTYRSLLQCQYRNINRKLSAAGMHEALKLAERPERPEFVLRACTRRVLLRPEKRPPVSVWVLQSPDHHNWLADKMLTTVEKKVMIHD

p38alpha kinase (h) = p38alpha kinase (h) (Homo sapiens, UniProt Q16539); settings: reference compound
p38alpha kinase (h), sequence (Q16539 whole entry): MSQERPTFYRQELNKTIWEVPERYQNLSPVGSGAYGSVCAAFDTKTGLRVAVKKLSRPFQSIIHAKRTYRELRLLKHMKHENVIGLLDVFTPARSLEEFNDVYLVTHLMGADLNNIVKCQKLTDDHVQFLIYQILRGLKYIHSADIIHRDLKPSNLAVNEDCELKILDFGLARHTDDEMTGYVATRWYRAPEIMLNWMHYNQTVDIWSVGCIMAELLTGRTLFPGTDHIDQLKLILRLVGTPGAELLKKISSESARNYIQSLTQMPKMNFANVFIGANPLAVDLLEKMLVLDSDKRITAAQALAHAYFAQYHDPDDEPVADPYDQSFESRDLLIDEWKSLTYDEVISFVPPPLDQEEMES

alpha2C (h) = alpha2C (h) (Homo sapiens, UniProt P18825); settings: reference compound; alpha2C (h)
alpha2C (h), sequence (P18825 whole entry): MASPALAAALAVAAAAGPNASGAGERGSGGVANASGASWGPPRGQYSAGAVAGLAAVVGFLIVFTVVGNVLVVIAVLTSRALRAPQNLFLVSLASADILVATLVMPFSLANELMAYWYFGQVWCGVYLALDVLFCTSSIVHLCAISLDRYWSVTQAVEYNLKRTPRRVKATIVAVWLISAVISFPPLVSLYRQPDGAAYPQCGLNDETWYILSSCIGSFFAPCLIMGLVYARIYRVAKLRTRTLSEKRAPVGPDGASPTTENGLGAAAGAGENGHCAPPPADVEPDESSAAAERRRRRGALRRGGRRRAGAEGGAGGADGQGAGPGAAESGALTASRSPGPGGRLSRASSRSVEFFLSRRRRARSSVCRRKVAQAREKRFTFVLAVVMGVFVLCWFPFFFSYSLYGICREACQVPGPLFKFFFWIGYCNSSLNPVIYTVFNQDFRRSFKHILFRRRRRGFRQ

alpha2A (h) = alpha2A (h) (Homo sapiens, UniProt P08913); settings: reference compound; alpha2A (h)
alpha2A (h), sequence (P08913 whole entry): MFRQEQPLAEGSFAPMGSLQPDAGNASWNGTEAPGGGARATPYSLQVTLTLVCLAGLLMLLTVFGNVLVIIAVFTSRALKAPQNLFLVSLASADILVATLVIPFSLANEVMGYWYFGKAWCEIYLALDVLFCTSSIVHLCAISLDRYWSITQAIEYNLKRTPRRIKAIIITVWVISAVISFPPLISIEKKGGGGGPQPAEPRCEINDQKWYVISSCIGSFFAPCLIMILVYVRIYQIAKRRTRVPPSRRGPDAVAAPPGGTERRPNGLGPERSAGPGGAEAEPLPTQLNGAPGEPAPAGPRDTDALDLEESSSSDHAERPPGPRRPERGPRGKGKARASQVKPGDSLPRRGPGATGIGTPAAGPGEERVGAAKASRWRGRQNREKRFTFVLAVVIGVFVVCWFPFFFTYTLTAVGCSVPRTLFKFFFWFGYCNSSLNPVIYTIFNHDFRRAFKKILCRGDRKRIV

ATPase (Na+/K+) = assay: Eurofins panel: ATPase (Na+/K+) enzymatic activity; assay type: biochemical; settings: reference compound, read-out: Concurrent IC50, Enzymatic activity
JNK1 (h) = JNK1 (h) (Homo sapiens, UniProt P45983); settings: Enzymatic activity; reference compound
5-HT3 (h) = 5-HT3 (h) (Homo sapiens, UniProt P46098); settings: reference compound; 5-HT3 (h)
5-HT3 (h), sequence (P46098 24-478): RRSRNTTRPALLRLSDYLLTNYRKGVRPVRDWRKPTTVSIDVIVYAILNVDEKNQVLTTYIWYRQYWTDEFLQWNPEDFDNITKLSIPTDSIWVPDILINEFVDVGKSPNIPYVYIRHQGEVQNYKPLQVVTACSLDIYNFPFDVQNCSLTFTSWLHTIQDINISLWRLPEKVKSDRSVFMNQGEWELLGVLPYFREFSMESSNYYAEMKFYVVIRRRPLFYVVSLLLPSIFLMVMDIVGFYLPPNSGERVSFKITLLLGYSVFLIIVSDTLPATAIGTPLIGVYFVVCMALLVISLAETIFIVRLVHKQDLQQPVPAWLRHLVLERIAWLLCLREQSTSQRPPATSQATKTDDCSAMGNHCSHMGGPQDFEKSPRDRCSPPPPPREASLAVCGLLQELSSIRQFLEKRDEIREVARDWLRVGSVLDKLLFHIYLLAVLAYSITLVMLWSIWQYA

5-HT2A (h) = target: T1, 5-HT2A (h) (Homo sapiens, UniProt P28223); assay: Eurofins panel: 5-HT2A (h) (agonist radioligand); assay type: binding; settings: reference compound; 5-HT2A (h)
T1 construct: purchased Eurofins (contract screening, CNS SafetyScreen panel)
T1 sequence (P28223 whole entry): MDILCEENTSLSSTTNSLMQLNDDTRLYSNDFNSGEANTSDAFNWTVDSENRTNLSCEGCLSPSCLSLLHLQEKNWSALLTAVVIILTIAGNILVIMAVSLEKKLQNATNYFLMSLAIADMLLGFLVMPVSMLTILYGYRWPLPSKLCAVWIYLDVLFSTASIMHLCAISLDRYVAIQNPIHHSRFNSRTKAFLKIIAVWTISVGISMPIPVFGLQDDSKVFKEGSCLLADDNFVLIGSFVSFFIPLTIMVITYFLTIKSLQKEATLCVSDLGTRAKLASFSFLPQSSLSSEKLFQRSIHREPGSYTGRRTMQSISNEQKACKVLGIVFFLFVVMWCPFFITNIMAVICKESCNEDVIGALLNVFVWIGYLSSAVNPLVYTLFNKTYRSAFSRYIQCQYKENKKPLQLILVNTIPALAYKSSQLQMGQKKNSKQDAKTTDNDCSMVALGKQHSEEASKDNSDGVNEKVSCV

5-HT2C (h) = target: T2, 5-HT2C (h) (Homo sapiens, UniProt P28335); assay: Eurofins panel: 5-HT2C (h) (agonist radioligand); assay type: binding; settings: reference compound, 5-HT2C (h)
T2 construct: purchased Eurofins (contract screening, CNS SafetyScreen panel)
T2 sequence (P28335 33-458): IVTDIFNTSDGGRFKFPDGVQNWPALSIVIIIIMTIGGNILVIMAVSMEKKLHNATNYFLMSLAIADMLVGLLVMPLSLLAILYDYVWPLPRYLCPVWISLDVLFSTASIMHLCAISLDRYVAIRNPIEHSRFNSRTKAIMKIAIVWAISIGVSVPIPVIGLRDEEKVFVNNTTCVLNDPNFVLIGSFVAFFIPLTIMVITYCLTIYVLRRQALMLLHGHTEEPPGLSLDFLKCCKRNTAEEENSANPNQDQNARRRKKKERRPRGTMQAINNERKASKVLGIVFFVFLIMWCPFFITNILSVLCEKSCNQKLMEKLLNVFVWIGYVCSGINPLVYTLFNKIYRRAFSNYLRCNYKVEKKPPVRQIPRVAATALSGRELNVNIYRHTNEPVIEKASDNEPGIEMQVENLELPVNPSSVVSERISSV

human 5-HT2B = target: T3, human 5-HT2B (Homo sapiens, UniProt P41595); assay: Eurofins CNS SafetyScreen panel: 5-HT2B (vs ± DOI); assay type: binding; settings: reference compound, 5-HT2B (h)
T3 construct: purchased Eurofins (contract screening, CNS SafetyScreen panel)
T3 sequence (P41595 whole entry): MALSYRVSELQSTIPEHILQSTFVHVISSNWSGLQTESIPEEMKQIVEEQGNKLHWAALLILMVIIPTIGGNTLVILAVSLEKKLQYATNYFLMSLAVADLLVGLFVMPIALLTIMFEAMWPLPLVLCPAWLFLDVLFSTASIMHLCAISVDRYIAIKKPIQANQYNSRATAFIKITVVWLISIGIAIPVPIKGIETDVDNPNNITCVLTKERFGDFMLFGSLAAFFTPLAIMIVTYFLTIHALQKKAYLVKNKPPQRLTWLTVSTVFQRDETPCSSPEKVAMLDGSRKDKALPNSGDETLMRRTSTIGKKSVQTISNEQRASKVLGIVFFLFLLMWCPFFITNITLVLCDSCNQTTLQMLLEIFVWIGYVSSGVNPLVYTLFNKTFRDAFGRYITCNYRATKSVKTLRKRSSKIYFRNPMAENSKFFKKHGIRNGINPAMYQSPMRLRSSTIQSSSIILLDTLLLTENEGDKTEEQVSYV

A3 (h) = A3 (h) (Homo sapiens, UniProt P0DMS8); settings: reference compound; A3 (h)
[2] = read-out: Concurrent IC50, Specific binding
[3] = read-out: Concurrent Ki, Specific binding

norepinephrine transporter (h), sequence (P23975 whole entry): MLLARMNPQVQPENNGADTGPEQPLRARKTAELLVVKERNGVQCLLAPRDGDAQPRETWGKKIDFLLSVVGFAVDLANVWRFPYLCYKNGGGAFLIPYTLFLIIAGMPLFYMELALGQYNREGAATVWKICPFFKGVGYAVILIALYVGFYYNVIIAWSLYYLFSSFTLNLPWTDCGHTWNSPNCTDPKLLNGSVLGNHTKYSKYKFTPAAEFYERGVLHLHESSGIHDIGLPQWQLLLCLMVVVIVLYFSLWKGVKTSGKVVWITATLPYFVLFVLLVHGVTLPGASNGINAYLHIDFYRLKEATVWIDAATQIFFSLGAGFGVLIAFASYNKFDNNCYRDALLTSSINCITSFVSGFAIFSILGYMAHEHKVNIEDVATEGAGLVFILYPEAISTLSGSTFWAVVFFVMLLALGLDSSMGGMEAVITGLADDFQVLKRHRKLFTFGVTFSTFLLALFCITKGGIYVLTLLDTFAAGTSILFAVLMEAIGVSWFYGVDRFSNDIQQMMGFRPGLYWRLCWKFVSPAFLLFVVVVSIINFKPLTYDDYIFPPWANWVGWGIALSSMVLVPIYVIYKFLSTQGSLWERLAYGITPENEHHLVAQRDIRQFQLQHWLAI

With CNCCCC1c2ccccc2C=Cc2ccccc21 [protriptyline] the “nH, Specific binding” value [1] was 1.357.
In the case of c1ccc2sc(C3(N4CCCCC4)CCCCC3)cc2c1 [BTCP], the nH (dopamine transporter (h)) is reported as 0.9093.
In the case of CCCN(CCC)C1CCc2cccc(O)c2C1 (stereo not shown) [Compound 8-OH-DPAT], the “nH, Specific binding” value (5-HT1A (h)) is reported as 1.814.
In the case of NCCc1c[nH]c2ccc(O)cc12 [serotonin], the “nH, Specific binding” value (5-HT4e (h)) is reported as 0.8128 and the “nH, Specific binding” value (5-HT7 (h)) is reported as 1.62.
Oc1ccc(-c2nc(-c3ccncc3)c(-c3ccc(F)cc3)[nH]2)cc1 [SB202190] was tested, and the “nH, Enzymatic activity” value (p38alpha kinase (h)) was 1.298.
In the case of COC(=O)[C@@H]1[C@H]2C[C@H]3c4[nH]c5ccccc5c4CCN3C[C@@H]2CC[C@@H]1O [yohimbine], the “nH, Specific binding” value (alpha2C (h)) is reported as 1.207 and the “nH, Specific binding” value (alpha2A (h)) is reported as 0.928.
Work on C[C@@H]1O[C@@H](O[C@H]2C[C@@H](O)[C@]3(CO)[C@H]4[C@H](O)C[C@]5(C)[C@@H](C6=CC(=O)OC6)CC[C@]5(O)[C@@H]4CC[C@]3(O)C2)[C@H](O)[C@H](O)[C@H]1O [ouabain] yielded an IC50 (ATPase (Na+/K+)) of 569 nM.
In the case of CN[C@@H]1C[C@H]2O[C@@](C)([C@@H]1OC)n1c3ccccc3c3c4c(c5c6ccccc6n2c5c31)C(=O)NC4 [staurosporine], the nH (JNK1 (h)) is reported as 0.9654.
CN1[C@@H]2CC[C@H]1C[C@@H](OC(=O)c1cc(Cl)cc(Cl)c1)C2 [MDL 72222] was tested, and the “nH, Specific binding” value (5-HT3 (h)) was 1.115.
In the case of COc1cc(CC(C)N)c(OC)cc1I (racemic) [(±)DOI], the “nH, Specific binding” value (5-HT2A (h)) is reported as 0.9157, the IC50 (5-HT2C (h); [2]) is reported as 0.668 nM and the Ki (5-HT2C (h); [3]) is reported as 0.602 nM. For the same molecule, the “nH, Specific binding” value (5-HT2C (h)) was 0.9843, the IC50 (human 5-HT2B; [2]) was 3.51 nM and the Ki (human 5-HT2B; [3]) was 1.75 nM. For the same molecule, the “nH, Specific binding” value (human 5-HT2B) was 0.8475.
For CNC(=O)[C@H]1O[C@@H](n2cnc3c(NCc4cccc(I)c4)ncnc32)[C@H](O)[C@@H]1O [IB-MECA], the “nH, Specific binding” value (A3 (h)) was 0.5951.
